Results from the NIST ThermoML archive (doi:10.1016/j.tca.2016.05.007).

Experiment: molar heat capacity at constant pressure
Settings: 101.33 kPa, Small (less than 1 g) adiabatic calorimetry

COc1ccc(C2(c3ccc(OC)c(C)c3)OC(=O)c3ccccc32)cc1C [3,3-bis(4-methoxy-3-methylphenyl)-1(3H)-isobenzofuranone]
Settings	molar heat capacity at constant pressure [J/K/mol]
122.17 K, Crystal	213.95
122.52 K, Glass	216.46
124.01 K, Crystal	216.41
124.36 K, Glass	219.13
125.87 K, Crystal	218.89
126.22 K, Glass	221.66
127.75 K, Crystal	221.61
128.1 K, Glass	224.36
129.65 K, Crystal	224.19
129.99 K, Glass	227.11
131.57 K, Crystal	226.74
131.9 K, Glass	229.75
133.5 K, Crystal	229.52
133.83 K, Glass	232.44
135.45 K, Crystal	232.5
135.78 K, Glass	234.99
137.41 K, Crystal	235.25
137.74 K, Glass	237.67
139.4 K, Crystal	237.93
139.72 K, Glass	240.4
141.4 K, Crystal	240.84
141.72 K, Glass	243.28
143.41 K, Crystal	243.44
143.74 K, Glass	246.09
145.45 K, Crystal	246.17
145.77 K, Glass	248.92
147.5 K, Crystal	249.06
147.82 K, Glass	251.76
149.57 K, Crystal	252.1
149.89 K, Glass	254.31
151.66 K, Crystal	254.85
151.97 K, Glass	257.37
153.77 K, Crystal	257.6
154.07 K, Glass	260.38
155.89 K, Crystal	260.26
156.2 K, Glass	263.17
158.03 K, Crystal	263.29
158.33 K, Glass	266.05
160.19 K, Crystal	265.94
160.48 K, Glass	269
162.37 K, Crystal	268.95
162.64 K, Glass	272.01
164.56 K, Crystal	271.82
164.81 K, Glass	275.02
166.77 K, Crystal	274.83
167 K, Glass	277.98
169 K, Crystal	277.76
169.19 K, Glass	280.78
171.25 K, Crystal	280.87
171.4 K, Glass	283.98
173.51 K, Crystal	283.67
173.62 K, Glass	286.89
175.79 K, Crystal	286.71
175.85 K, Glass	289.88
178.09 K, Crystal	289.96
178.09 K, Glass	293
180.35 K, Glass	296.49
180.41 K, Crystal	293.2
182.62 K, Glass	299.4
182.75 K, Crystal	296.08
184.9 K, Glass	302.23
185.1 K, Crystal	299.36
187.19 K, Glass	305.37
187.47 K, Crystal	302.25
189.49 K, Glass	308.6
189.86 K, Crystal	305.36
191.81 K, Glass	311.72
192.26 K, Crystal	308.64
194.14 K, Glass	314.93
194.69 K, Crystal	311.89
196.48 K, Glass	318.26
197.13 K, Crystal	315.34
198.84 K, Glass	321.49
199.32 K, Crystal	317.71
201.2 K, Glass	324.99
201.85 K, Crystal	321.03
203.58 K, Glass	328.08
204.39 K, Crystal	324.18
205.97 K, Glass	331.65
206.95 K, Crystal	328.02
208.37 K, Glass	334.98
209.51 K, Crystal	331.38
210.79 K, Glass	338.72
212.09 K, Crystal	334.57
213.22 K, Glass	342.02
214.68 K, Crystal	337.96
215.66 K, Glass	345.52
217.29 K, Crystal	341.78
218.12 K, Glass	349.05
219.9 K, Crystal	345.52
220.58 K, Glass	352.67
222.52 K, Crystal	348.92
223.06 K, Glass	355.96
225.16 K, Crystal	352.6
225.55 K, Glass	359.74
227.81 K, Crystal	355.97
228.02 K, Glass	362.84
230.46 K, Glass	366.31
230.47 K, Crystal	359.41
232.95 K, Glass	369.75
233.14 K, Crystal	362.97
235.43 K, Glass	373.33
235.82 K, Crystal	366.8
237.94 K, Glass	377.18
238.52 K, Crystal	370.5
240.46 K, Glass	380.87
241.23 K, Crystal	373.97
243.01 K, Glass	384.18
243.95 K, Crystal	377.59
245.58 K, Glass	387.76
246.68 K, Crystal	381.22
248.17 K, Glass	391.43
249.42 K, Crystal	384.68
250.78 K, Glass	395.34
252.17 K, Crystal	388.51
253.42 K, Glass	399.08
254.94 K, Crystal	392.35
256.07 K, Glass	402.8
257.72 K, Crystal	395.86
258.74 K, Glass	406.86
260.51 K, Crystal	399.92
261.44 K, Glass	410.9
263.31 K, Crystal	403.6
264.16 K, Glass	414.85
266.12 K, Crystal	407.84
266.89 K, Glass	419.34
268.94 K, Crystal	412.03
269.65 K, Glass	423.9
271.78 K, Crystal	417
272.43 K, Glass	428.57
274.62 K, Crystal	419.54
275.22 K, Glass	431.8
277.48 K, Crystal	423.7
278.04 K, Glass	436.42
280.36 K, Crystal	427.79
280.88 K, Glass	440.97
282.95 K, Crystal	430.44
283.74 K, Glass	445.62
285.84 K, Crystal	434.94
286.62 K, Glass	450.63
288.75 K, Crystal	438.86
289.52 K, Glass	455.31
291.64 K, Crystal	442.83
292.44 K, Glass	460.3
294.51 K, Crystal	446.52
295.38 K, Glass	465.32
297.4 K, Crystal	449.56
298.34 K, Glass	470.91
301.33 K, Glass	473.58
303.26 K, Crystal	457.78
304.32 K, Glass	491.69
306.21 K, Crystal	461.74
307.3 K, Glass	525.07
309.18 K, Crystal	465.91
310.26 K, Glass	604.32
312.18 K, Crystal	470.02
313.23 K, Glass	614.14
315.19 K, Crystal	474.07
316.23 K, Metastable liquid	622.32
318.23 K, Crystal	478.43
319.25 K, Metastable liquid	625.96
321.28 K, Crystal	482.81
322.29 K, Metastable liquid	629.84
324.35 K, Crystal	487.1
325.35 K, Metastable liquid	633.32
327.44 K, Crystal	491.54
328.43 K, Metastable liquid	636.56
330.55 K, Crystal	495.88
331.52 K, Metastable liquid	639.81
333.68 K, Crystal	500.17
334.64 K, Metastable liquid	642.98
336.81 K, Crystal	504.57
337.78 K, Metastable liquid	646.52
339.94 K, Crystal	508.36
340.93 K, Metastable liquid	649.55
343.08 K, Crystal	512.55
344.11 K, Metastable liquid	652.75
346.25 K, Crystal	517.45
347.3 K, Metastable liquid	656.04
349.43 K, Crystal	521.7
350.51 K, Metastable liquid	659.31
352.63 K, Crystal	525.97
353.74 K, Metastable liquid	662.1
355.85 K, Crystal	530.55
356.97 K, Metastable liquid	665.61
359.09 K, Crystal	535.23
360.22 K, Metastable liquid	669.03
362.34 K, Crystal	540.42
363.49 K, Metastable liquid	672.55
365.61 K, Crystal	545.96
366.77 K, Metastable liquid	676.27
368.9 K, Crystal	551.67
370.07 K, Metastable liquid	680.12
372.2 K, Crystal	556.9
